± gives the expanded uncertainty stated by the source.

A short description of the data set: activity coefficient (dimensionless); of the first substance listed, at infinite dilution; xn = mol fraction of the nth substance listed. The conditions noted are these: 101.33 kPa, Liquid, Chromatography, x1 = 0.

On to `CCCO` [propan-1-ol] + CCC[n+]1ccn(C)c1.[Br-], for which the activity coefficient is, setting by setting: (323.15 K) 0.279 ± 0.038; (333.15 K) 0.268 ± 0.037; (343.15 K) 0.258 ± 0.036; (353.15 K) 0.25 ± 0.036; (363.15 K) 0.244 ± 0.035.

Turning to `CCCCCCCC` [octane] + CCC[n+]1ccn(C)c1.[Br-], the activity coefficient reads like this: (323.15 K) 111 ± 12; (333.15 K) 107 ± 11; (343.15 K) 104 ± 11; (353.15 K) 100 ± 11; (363.15 K) 97.7 ± 10.

Take `CC(C)CO` [2-methyl-1-propanol] + CCC[n+]1ccn(C)c1.[Br-]: the activity coefficient runs as follows: (323.15 K) 0.426 ± 0.049; (333.15 K) 0.406 ± 0.047; (343.15 K) 0.39 ± 0.046; (353.15 K) 0.378 ± 0.045; (363.15 K) 0.368 ± 0.044.

In the case of `C1CCOC1` [tetrahydrofuran] + CCC[n+]1ccn(C)c1.[Br-], the activity coefficient was determined as 2.11 ± 0.22 (323.15 K); 2.19 ± 0.23 (333.15 K); 2.28 ± 0.24 (343.15 K); 2.37 ± 0.25 (353.15 K); 2.47 ± 0.26 (363.15 K).

In the case of `CCCCCO` [pentan-1-ol] + CCC[n+]1ccn(C)c1.[Br-], the activity coefficient reads like this: (323.15 K) 0.692 ± 0.072; (333.15 K) 0.651 ± 0.069; (343.15 K) 0.619 ± 0.066; (353.15 K) 0.592 ± 0.063; (363.15 K) 0.575 ± 0.062.

Take `c1ccccc1` [benzene] + CCC[n+]1ccn(C)c1.[Br-]: the activity coefficient reads like this: (323.15 K) 1.7 ± 0.18; (333.15 K) 1.79 ± 0.19; (343.15 K) 1.89 ± 0.2; (353.15 K) 2 ± 0.21; (363.15 K) 2.11 ± 0.22.

As to `CCCCCCCCCC` [decane] + CCC[n+]1ccn(C)c1.[Br-], the activity coefficient is, setting by setting: (323.15 K) 130 ± 14; (333.15 K) 124 ± 13; (343.15 K) 118 ± 12; (353.15 K) 112 ± 12; (363.15 K) 108 ± 11.

For `CC1CCCCC1` [methylcyclohexane] + CCC[n+]1ccn(C)c1.[Br-], the activity coefficient by setting is: (323.15 K) 82.3 ± 8.7; (333.15 K) 79.9 ± 8.4; (343.15 K) 77.5 ± 8.2; (353.15 K) 75.2 ± 7.9; (363.15 K) 73.2 ± 7.7.

As for `CCCCO` [butan-1-ol] + CCC[n+]1ccn(C)c1.[Br-], the activity coefficient reads like this: (323.15 K) 0.438 ± 0.05; (333.15 K) 0.417 ± 0.048; (343.15 K) 0.402 ± 0.047; (353.15 K) 0.388 ± 0.046; (363.15 K) 0.379 ± 0.045.

`CC(C)CCO` [3-methylbutan-1-ol] + CCC[n+]1ccn(C)c1.[Br-]: the activity coefficient amounted to 0.62 ± 0.066 (323.15 K); 0.587 ± 0.063 (333.15 K); 0.564 ± 0.061 (343.15 K); 0.548 ± 0.059 (353.15 K); 0.531 ± 0.058 (363.15 K).

Take `CCCCCC` [hexane] + CCC[n+]1ccn(C)c1.[Br-]: the activity coefficient reads like this: (323.15 K) 102 ± 11; (333.15 K) 98.9 ± 10; (343.15 K) 95.6 ± 10; (353.15 K) 92.5 ± 9.7; (363.15 K) 89.9 ± 9.5.

`CO` [methanol] + CCC[n+]1ccn(C)c1.[Br-]: the activity coefficient (323.15 K) amounted to 0.112 ± 0.03; the activity coefficient (333.15 K) turned out to be 0.108 ± 0.03; the activity coefficient (343.15 K) stood at 0.106 ± 0.03; the activity coefficient (353.15 K) turned out to be 0.103 ± 0.03; the activity coefficient (363.15 K) stood at 0.102 ± 0.03.

For `Cc1ccccc1C` [1,2-dimethylbenzene] + CCC[n+]1ccn(C)c1.[Br-], the activity coefficient by setting is: (323.15 K) 4.19 ± 0.44; (333.15 K) 4.3 ± 0.45; (343.15 K) 4.49 ± 0.47; (353.15 K) 4.71 ± 0.49; (363.15 K) 4.97 ± 0.52.

With `CCOC(C)=O` [ethyl acetate] + CCC[n+]1ccn(C)c1.[Br-], the activity coefficient runs as follows: (323.15 K) 3.68 ± 0.39; (333.15 K) 3.86 ± 0.41; (343.15 K) 4.07 ± 0.43; (353.15 K) 4.27 ± 0.45; (363.15 K) 4.46 ± 0.47.

With `Cc1ccccc1` [toluene] + CCC[n+]1ccn(C)c1.[Br-], the activity coefficient worked out at 2.95 ± 0.31 (323.15 K); 3.11 ± 0.33 (333.15 K); 3.33 ± 0.35 (343.15 K); 3.5 ± 0.37 (353.15 K); 3.72 ± 0.39 (363.15 K).

Regarding `ClCCl` [dichloromethane] + CCC[n+]1ccn(C)c1.[Br-], the activity coefficient is, setting by setting: (323.15 K) 0.27 ± 0.04; (333.15 K) 0.29 ± 0.04; (343.15 K) 0.31 ± 0.04; (353.15 K) 0.34 ± 0.04; (363.15 K) 0.38 ± 0.05.

On to `CCc1ccccc1` [ethylbenzene] + CCC[n+]1ccn(C)c1.[Br-], for which the activity coefficient is, setting by setting: (323.15 K) 5.48 ± 0.58; (333.15 K) 5.67 ± 0.6; (343.15 K) 5.84 ± 0.61; (353.15 K) 6.01 ± 0.63; (363.15 K) 6.19 ± 0.65.

Regarding `C1COCCO1` [1,4-dioxane] + CCC[n+]1ccn(C)c1.[Br-], the activity coefficient was 1.01 ± 0.1 (323.15 K); 1.05 ± 0.11 (333.15 K); 1.11 ± 0.11 (343.15 K); 1.17 ± 0.12 (353.15 K); 1.23 ± 0.13 (363.15 K).

As for `C1CCCCC1` [cyclohexane] + CCC[n+]1ccn(C)c1.[Br-], the activity coefficient worked out at 66.2 ± 7 (323.15 K); 64.5 ± 6.8 (333.15 K); 62.9 ± 6.6 (343.15 K); 61.6 ± 6.5 (353.15 K); 60.4 ± 6.4 (363.15 K).

For the molecule `CCCCCCCCC` [nonane] + CCC[n+]1ccn(C)c1.[Br-], the activity coefficient was determined as 119 ± 13 (323.15 K); 115 ± 12 (333.15 K); 110 ± 12 (343.15 K); 106 ± 11 (353.15 K); 103 ± 11 (363.15 K).

Consider `Cc1cccc(C)c1` [1,3-dimethylbenzene] + CCC[n+]1ccn(C)c1.[Br-], for which the activity coefficient was determined as 5.91 ± 0.62 (323.15 K); 6.04 ± 0.63 (333.15 K); 6.18 ± 0.65 (343.15 K); 6.33 ± 0.67 (353.15 K); 6.47 ± 0.68 (363.15 K).

For the molecule `ClC(Cl)(Cl)Cl` [tetrachloromethane] + CCC[n+]1ccn(C)c1.[Br-], the activity coefficient is 0.78 ± 0.08 (323.15 K); 0.86 ± 0.09 (333.15 K); 0.96 ± 0.1 (343.15 K); 1.07 ± 0.11 (353.15 K); 1.17 ± 0.12 (363.15 K).

For the molecule `ClC(Cl)Cl` [trichloromethane] + CCC[n+]1ccn(C)c1.[Br-], the activity coefficient reads like this: (323.15 K) 0.13 ± 0.03; (333.15 K) 0.15 ± 0.03; (343.15 K) 0.16 ± 0.03; (353.15 K) 0.18 ± 0.03; (363.15 K) 0.2 ± 0.03.

For the molecule `CC(C)=O` [acetone] + CCC[n+]1ccn(C)c1.[Br-], the activity coefficient by setting is: (323.15 K) 1.06 ± 0.11; (333.15 K) 1.14 ± 0.12; (343.15 K) 1.21 ± 0.12; (353.15 K) 1.29 ± 0.13; (363.15 K) 1.37 ± 0.14.

With `CC(C)O` [propan-2-ol] + CCC[n+]1ccn(C)c1.[Br-], the activity coefficient was 0.373 ± 0.044 (323.15 K); 0.359 ± 0.043 (333.15 K); 0.344 ± 0.042 (343.15 K); 0.334 ± 0.042 (353.15 K); 0.326 ± 0.041 (363.15 K).

Take `Cc1ccc(C)cc1` [1,4-dimethylbenzene] + CCC[n+]1ccn(C)c1.[Br-]: the activity coefficient runs as follows: (323.15 K) 5.65 ± 0.59; (333.15 K) 5.8 ± 0.61; (343.15 K) 5.95 ± 0.63; (353.15 K) 6.11 ± 0.64; (363.15 K) 6.3 ± 0.66.

`CCC(C)O` (stereo not given) [butan-2-ol] + CCC[n+]1ccn(C)c1.[Br-]: the activity coefficient (323.15 K) is 0.52 ± 0.057; the activity coefficient (333.15 K) stood at 0.5 ± 0.055; the activity coefficient (343.15 K) was 0.485 ± 0.054; the activity coefficient (353.15 K) came out at 0.471 ± 0.053; the activity coefficient (363.15 K) was determined as 0.462 ± 0.052.

Turning to `C=Cc1ccccc1` [styrene] + CCC[n+]1ccn(C)c1.[Br-], the activity coefficient (323.15 K) worked out at 1.83 ± 0.19; the activity coefficient (333.15 K) stood at 1.92 ± 0.2; the activity coefficient (343.15 K) was 2 ± 0.21; the activity coefficient (353.15 K) turned out to be 2.08 ± 0.22; the activity coefficient (363.15 K) was 2.17 ± 0.23.

`C1=CCCCC1` [cyclohexene] + CCC[n+]1ccn(C)c1.[Br-]: the activity coefficient reads like this: (323.15 K) 21.7 ± 2.3; (333.15 K) 20.6 ± 2.2; (343.15 K) 19.7 ± 2.1; (353.15 K) 18.8 ± 2; (363.15 K) 18.1 ± 1.9.

For the molecule `CCCCCCC` [heptane] + CCC[n+]1ccn(C)c1.[Br-], the activity coefficient (323.15 K) is 106 ± 11; the activity coefficient (333.15 K) came to 102 ± 11; the activity coefficient (343.15 K) turned out to be 98.5 ± 10; the activity coefficient (353.15 K) was determined as 95.4 ± 10; the activity coefficient (363.15 K) amounted to 92.5 ± 9.7.

As for `CCO` [ethanol] + CCC[n+]1ccn(C)c1.[Br-], the activity coefficient came out at 0.208 ± 0.033 (323.15 K); 0.197 ± 0.033 (333.15 K); 0.19 ± 0.032 (343.15 K); 0.184 ± 0.032 (353.15 K); 0.18 ± 0.032 (363.15 K).

Consider `CC#N` [acetonitrile] + CCC[n+]1ccn(C)c1.[Br-], for which the activity coefficient came out at 0.37 ± 0.04 (323.15 K); 0.39 ± 0.05 (333.15 K); 0.41 ± 0.05 (343.15 K); 0.44 ± 0.05 (353.15 K); 0.48 ± 0.05 (363.15 K).

Consider `CC(C)CC(C)(C)C` [2,2,4-trimethylpentane] + CCC[n+]1ccn(C)c1.[Br-], for which the activity coefficient (323.15 K) was 115 ± 12; the activity coefficient (333.15 K) was found to be 111 ± 12; the activity coefficient (343.15 K) was 108 ± 11; the activity coefficient (353.15 K) worked out at 104 ± 11; the activity coefficient (363.15 K) came out at 101 ± 11.

Values taken from the NIST ThermoML archive (doi:10.1016/j.jct.2018.09.023).
